The record followed here is patent publication US12528814B2, “Bifunctional degraders of interleukin-1 receptor-associated kinases and therapeutic use thereof” (NURIX THERAPEUTICS, INC., priority 2020, dated 2026).

Like-named read-outs stand apart in the source and are kept apart here.

As a reminder, the IC50 is the concentration needed to halve the response being measured. Usually Dmax stands for the greatest extent of degradation seen. Usually DC50 stands for the concentration at which degradation of the target reaches its halfway point.

Experiment [1] deals with T1, IRAK4 (Homo sapiens (Human), UniProt Q9NWZ3). Briefly: IRAK4 Biochemical HTRF Kinase Assay. Particulars: read-out: IRAK4 HTRF biochemical: IC50. In outline:
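IC50 values derive from non-linear regression of sixteen concentrations in duplicate. Kinase reaction ran 90 min at ambient temperature after adding 5 μM STK-S1 substrate, 10 mM ATP and 10 mM MgCl2 (reaction-solution levels, pre-dilution to 10 μl); phospho-peptide detected by HTRF after 60 min.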
A general note: TR-FRET usually uses a lanthanide donor and a delayed reading to cut background.
Target sequence in this assay (Q9NWZ3 whole entry, species assumed): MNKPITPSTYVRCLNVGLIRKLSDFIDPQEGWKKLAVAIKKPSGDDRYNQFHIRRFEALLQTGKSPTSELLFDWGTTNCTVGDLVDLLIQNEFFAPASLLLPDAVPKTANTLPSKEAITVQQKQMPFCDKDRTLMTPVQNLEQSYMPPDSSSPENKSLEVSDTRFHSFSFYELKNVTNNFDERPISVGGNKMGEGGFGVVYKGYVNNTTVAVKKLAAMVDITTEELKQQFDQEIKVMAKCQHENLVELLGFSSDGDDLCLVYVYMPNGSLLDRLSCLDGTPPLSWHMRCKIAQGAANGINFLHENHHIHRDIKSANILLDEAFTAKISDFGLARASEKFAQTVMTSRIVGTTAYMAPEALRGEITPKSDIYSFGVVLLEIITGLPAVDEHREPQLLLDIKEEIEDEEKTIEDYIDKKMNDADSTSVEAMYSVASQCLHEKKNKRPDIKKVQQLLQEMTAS

The target of experiment [2] is T1, IRAK4. The experiment in a line: IRAK4 Degradation HiBiT Assay. Particulars: HiBiT-tagged Jurkat cells, 4 hrs; for Dmax: Jurkat; for DC50: read-out: Cellular IRAK4 HiBiT: DC50. A general note: The HiBiT peptide binds its large partner to form an active luciferase.
Target sequence in this assay (Q9NWZ3 whole entry): as the sequence (Q9NWZ3 whole entry, species assumed) above
Description: Compound dilution series (11-point, 3.16-fold dilutions in DMSO, columns 1-11 and 12-22) at 500× the final required concentrations were prepared in Labcyte LDV 384-well plates (cat. no. LP-0200) using a Labcyte Echo 550 Liquid Handler. The 500× solutions ranged from 5 mM to 0.5 μM (final assay concentration range 10 μM to 0.1 nM). Using the Echo, the 500× solutions were stamped into white, 384-well assay plates (Corning, cat. no. 3570) at 60 nL/well. […] C-terminal HiBiT-tagged Jurkat cells (polyclonal cell line or clone 8D5) were plated at 1×10^6 cells/mL, 30 μL/well (3×10^4 cells/well) in complete RPMI (10% FBS, 1% L-glutamine). Cells were incubated for 4 hrs at 32° C./6% CO2.
Following incubation, 30 uL of complete Nano-Glo HiBiT Lytic Detection Reagent (Nano-Glo HiBiT Lytic Buffer with 1:50 Nano-Glo HiBiT Lytic Substrate and 1:100 LgBiT Protein; Promega cat. no. N3040) was added. Cells were further incubated for 10 min at room temperature (RT). Luminescence units (LU) were read on an EnVision plate reader (Perkin Elmer, 0.1 sec per well). Percent IRAK4 remaining per sample was calculated as follows:
Using Graphpad Prism, % IRAK4 remaining values were plotted as a function of compound concentration.
Setting [3] is: read-out: Cellular IRAK4 HiBiT: Dmax, Table 4.
Where [4] appears, read: read-out: Cellular IRAK4 HiBiT: Dmax, Table 5, multiple runs.

Turning to `Cc1ncsc1-c1ccc([C@H](C)NC(=O)[C@@H]2C[C@@H](O)CN2C(=O)[C@@H](NC(=O)CCCCCCCCCC(=O)N2CCN(c3nnc(-c4cnc(-c5ccc6cc(C#N)cnn56)cc4NC(C)C)s3)CC2)C(C)(C)C)cc1` [Example 38, (2S,4R)-1-((S)-2-(11-(4-(5-(6-(3-cyanopyrrolo[1,2-b]pyridazin-7-yl)-4-(isopropylamino)pyridin-3-yl)-1,3,4-thiadiazol-2-yl)piperazin-1-yl)-11-oxoundecanamido)-3,3-dimethylbutanoyl)-4-hydroxy-N—((S)-1-(4-(4-methylthiazol-5-yl)phenyl)ethyl)pyrrolidine-2-carboxamide], the IC50 on IRAK4 [1] (Table 4) is 10.4 nM; on IRAK4 [1] (Table 5, multiple runs), 10.4 nM. In addition, the Dmax on IRAK4 [2] (setting [3]) and at IRAK4 [2] (setting [4]) was 34% throughout. Besides, the DC50 on IRAK4 [2] (Table 4) came out at 128 nM; at IRAK4 [2] (Table 5, multiple runs), 128 nM.

As to `Cc1ncsc1-c1ccc([C@H](C)NC(=O)[C@@H]2C[C@@H](O)CN2C(=O)[C@@H](NC(=O)CCCCCC(=O)N2CCN(c3nnc(-c4cnc(-c5ccc6cc(C#N)cnn56)cc4NC(C)C)s3)CC2)C(C)(C)C)cc1` [Example 37, (2S,4R)-1-((S)-2-(7-(4-(5-(6-(3-cyanopyrrolo[1,2-b]pyridazin-7-yl)-4-(isopropylamino)pyridin-3-yl)-1,3,4-thiadiazol-2-yl)piperazin-1-yl)-7-oxoheptanamido)-3,3-dimethylbutanoyl)-4-hydroxy-N—((S)-1-(4-(4-methylthiazol-5-yl)phenyl)ethyl)pyrrolidine-2-carboxamide], the half-maximal inhibitory concentration (IC50) came to 6 nM at IRAK4 [1] (Table 4) and 6 nM at IRAK4 [1] (Table 5, multiple runs). Moreover, the Dmax on IRAK4 [2] (setting [3]) and at IRAK4 [2] (setting [4]) was 98% in each case. In addition, the 50% degradation concentration (DC50) is 240 nM on IRAK4 [2] (Table 4) and 220 nM on IRAK4 [2] (Table 5, multiple runs).

Turning to `CC(C)Nc1cc(-c2ccc3cc(C#N)cnn23)ncc1-c1nnc(N2CCN(C(=O)C3CCN(c4ccc5c(c4)C(=O)N(C4CCC(=O)NC4=O)C5=O)CC3)CC2)s1` (stereo not shown) [Example 23, 7-{5-[5-(4-{1-[2-(2,6-dioxopiperidin-3-yl)-1,3-dioxo-2,3-dihydro-1H-isoindol-5-yl]piperidine-4-carbonyl}piperazin-1-yl)-1,3,4-thiadiazol-2-yl]-4-[(propan-2-yl)amino]pyridin-2-yl}pyrrolo[1,2-b]pyridazine-3-carbonitrile], the 50% inhibitory concentration (IC50) was determined as 1.5 nM at IRAK4 [1] (Table 4) and 1.5 nM at IRAK4 [1] (Table 5, multiple runs). Besides, the results for the Dmax at IRAK4 [2] (setting [3]) and at IRAK4 [2] (setting [4]) were 97% and 108%, respectively. Further, the half-maximal degradation concentration (DC50) on IRAK4 [2] (Table 4) is 184 nM; at IRAK4 [2] (Table 5, multiple runs), 57 nM.

For the molecule `Cc1ncsc1-c1ccc(CNC(=O)[C@@H]2C[C@@H](O)CN2C(=O)[C@@H](NC(=O)C2(F)CC2)C(C)(C)C)c(OCCCC(=O)N2CCN(c3nnc(-c4cnc(-c5ccc6cc(C#N)cnn56)cc4NC(C)C)s3)CC2)c1` [Example 79, (2S,4R)—N-(2-(4-(4-(5-(6-(3-cyanopyrrolo[1,2-b]pyridazin-7-yl)-4-(isopropylamino)pyridin-3-yl)-1,3,4-thiadiazol-2-yl)piperazin-1-yl)-4-oxobutoxy)-4-(4-methylthiazol-5-yl)benzyl)-1-((S)-2-(1-fluorocyclopropane-1-carboxamido)-3,3-dimethylbutanoyl)-4-hydroxypyrrolidine-2-carboxamide], on IRAK4 [1] (Table 5, multiple runs), the IC50 is 9.8 nM. On IRAK4 [2] (setting [4]), the Dmax is 113%. Further, the DC50 on IRAK4 [2] (Table 5, multiple runs) worked out at 137 nM.

In the case of `CNc1cc(-c2ccc3cc(C#N)cnn23)ncc1-c1nnc(N2CCC(NC(=O)CCC(=O)N[C@H](C(=O)N3C[C@H](O)C[C@H]3C(=O)N[C@@H](C)c3ccc(-c4scnc4C)cc3)C(C)(C)C)CC2)s1` [Example 158, N1-(1-(5-(6-(3-cyanopyrrolo[1,2-b]pyridazin-7-yl)-4-(methylamino)pyridin-3-yl)-1,3,4-thiadiazol-2-yl)piperidin-4-yl)-N4—((S)-1-((2S,4R)-4-hydroxy-2-(((S)-1-(4-(4-methylthiazol-5-yl)phenyl)ethyl)carbamoyl)pyrrolidin-1-yl)-3,3-dimethyl-1-oxobutan-2-yl)succinamide], at IRAK4 [1] (Table 5, multiple runs), the half-inhibitory concentration (IC50) is 1.6 nM. Moreover, the Dmax at IRAK4 [2] (setting [4]) was found to be 74%. For the same molecule, on IRAK4 [2] (Table 5, multiple runs), the half-maximal degradation concentration (DC50) stood at 1210 nM.

As for `CCN(C(=O)C[C@H](NC(=O)[C@@H]1C[C@@H](O)CN1C(=O)C(c1cc(C)no1)C(C)C)c1ccc(-c2scnc2C)cc1)[C@H]1CC[C@H](c2nnc(-c3cnc(-c4ccc5cc(C#N)cnn45)cc3NC)s2)CC1` (stereo partly drawn) [Example 192, (2S,4R)—N—((S)-3-(((1r,4S)-4-(5-(6-(3-cyanopyrrolo[1,2-b]pyridazin-7-yl)-4-(methylamino)pyridin-3-yl)-1,3,4-thiadiazol-2-yl)cyclohexyl)(ethyl)amino)-1-(4-(4-methylthiazol-5-yl)phenyl)-3-oxopropyl)-4-hydroxy-1-(3-methyl-2-(3-methylisoxazol-5-yl)butanoyl)pyrrolidine-2-carboxamide], the IC50 at IRAK4 [1] (Table 5, multiple runs) came out at 1.4 nM. Moreover, the Dmax on IRAK4 [2] (setting [4]) is 103%. Further, at IRAK4 [2] (Table 5, multiple runs), the 50% degradation concentration (DC50) was 50.6 nM.

Take `CNc1cc(-c2ccc3cc(C#N)cnn23)ncc1-c1nnc(N2CCN(C3CCN(C(=O)c4ccc(C(=O)NC5CCC(=O)NC5=O)cc4)CC3)CC2)s1` (stereo not shown) [Example 132, 4-(4-(4-(5-(6-(3-cyanopyrrolo[1,2-b]pyridazin-7-yl)-4-(methylamino)pyridin-3-yl)-1,3,4-thiadiazol-2-yl)piperazin-1-yl)piperidine-1-carbonyl)-N-(2,6-dioxopiperidin-3-yl)benzamide]: the IC50 on IRAK4 [1] (Table 5, multiple runs) came out at 0.6 nM. Further, the DC50 at IRAK4 [2] (Table 5, multiple runs) is more than 9980 nM.

For the molecule `CNc1cc(-c2ccc3cc(C#N)cnn23)ncc1-c1nnc(N2CC3CCC(C2)N3C(=O)C[C@H](NC(=O)[C@@H]2C[C@@H](O)CN2C(=O)[C@@H](NC(=O)C2(F)CC2)C(C)(C)C)c2ccc(-c3scnc3C)cc2)s1` [Example 180, (2S,4R)—N-((1S)-3-(3-(5-(6-(3-cyanopyrrolo[1,2-b]pyridazin-7-yl)-4-(methylamino)pyridin-3-yl)-1,3,4-thiadiazol-2-yl)-3,8-diazabicyclo[3.2.1]octan-8-yl)-1-(4-(4-methylthiazol-5-yl)phenyl)-3-oxopropyl)-1-((S)-2-(1-fluorocyclopropane-1-carboxamido)-3,3-dimethylbutanoyl)-4-hydroxypyrrolidine-2-carboxamide], the IC50 at IRAK4 [1] (Table 5, multiple runs) turned out to be 0.5 nM. Further, the Dmax on IRAK4 [2] (setting [4]) was determined as 110%. For the same molecule, the DC50 on IRAK4 [2] (Table 5, multiple runs) is 91.6 nM.

As to `CC(C)Nc1cc(-c2ccc3cc(C#N)cnn23)ncc1-c1nnc(N2CCN(C3CCN(Cc4ccc5c(c4)C(=O)N(C4CCC(=O)NC4=O)C5=O)CC3)CC2)s1` (stereo not shown) [Example 18, 7-(5-(5-(4-(1-((2-(2,6-dioxopiperidin-3-yl)-1,3-dioxoisoindolin-5-yl)methyl)piperidin-4-yl)piperazin-1-yl)-1,3,4-thiadiazol-2-yl)-4-(isopropylamino)pyridin-2-yl)pyrrolo[1,2-b]pyridazine-3-carbonitrile], the half-inhibitory concentration (IC50) on IRAK4 [1] (Table 4) was 1.9 nM; on IRAK4 [1] (Table 5, multiple runs) it was 1.9 nM. Besides, the Dmax at IRAK4 [2] (setting [3]) was found to be 88%; at IRAK4 [2] (setting [4]), 87%. For the same molecule, the DC50 at IRAK4 [2] (Table 4) came to 123 nM; at IRAK4 [2] (Table 5, multiple runs) it was 113 nM.

For `CNc1cc(-c2ccc3cc(C#N)cnn23)ncc1-c1nnc(N2CCN(C(=O)COc3cc(-c4scnc4C)ccc3CNC(=O)[C@@H]3C[C@@H](O)CN3C(=O)[C@@H](NC(=O)C3(F)CC3)C(C)(C)C)CC2)s1` [Example 96, (2S,4R)—N-(2-(2-(4-(5-(6-(3-cyanopyrrolo[1,2-b]pyridazin-7-yl)-4-(methylamino)pyridin-3-yl)-1,3,4-thiadiazol-2-yl)piperazin-1-yl)-2-oxoethoxy)-4-(4-methylthiazol-5-yl)benzyl)-1-((S)-2-(1-fluorocyclopropane-1-carboxamido)-3,3-dimethylbutanoyl)-4-hydroxypyrrolidine-2-carboxamide], the IC50 at IRAK4 [1] (Table 5, multiple runs) turned out to be 1.3 nM. Moreover, the Dmax at IRAK4 [2] (setting [4]) stood at 90%. For the same molecule, the 50% degradation concentration (DC50) at IRAK4 [2] (Table 5, multiple runs) was found to be 905 nM.

Turning to `CC(C)Nc1cc(-c2ccc3cc(C#N)cnn23)ncc1-c1nnc(N2CCN(CC3CCN(Cc4ccc5c(c4)C(=O)N(C4CCC(=O)NC4=O)C5=O)CC3)CC2)s1` (stereo not shown) [Example 85, 7-(5-(5-(4-((1-((2-(2,6-dioxopiperidin-3-yl)-1,3-dioxoisoindolin-5-yl)methyl)piperidin-4-yl)methyl)piperazin-1-yl)-1,3,4-thiadiazol-2-yl)-4-(isopropylamino)pyridin-2-yl)pyrrolo[1,2-b]pyridazine-3-carbonitrile], on IRAK4 [1] (Table 5, multiple runs), the half-maximal inhibitory concentration (IC50) came out at 2.1 nM. In addition, the DC50 on IRAK4 [2] (Table 5, multiple runs) was more than 970 nM.

For `CNc1cc(-c2ccc3cc(C#N)cnn23)ncc1-c1nnc([C@H]2CC[C@H](N(C)C(=O)CN3CCN(c4ccc5c(c4)C(=O)N(C4CCC(=O)NC4=O)C5=O)CC3)CC2)s1` (stereo partly shown) [Example 137, N-((1r,4r)-4-(5-(6-(3-cyanopyrrolo[1,2-b]pyridazin-7-yl)-4-(methylamino)pyridin-3-yl)-1,3,4-thiadiazol-2-yl)cyclohexyl)-2-(4-(2-(2,6-dioxopiperidin-3-yl)-1,3-dioxoisoindolin-5-yl)piperazin-1-yl)-N-methylacetamide], the half-maximal inhibitory concentration (IC50) at IRAK4 [1] (Table 5, multiple runs) turned out to be 22.6 nM. Moreover, the Dmax on IRAK4 [2] (setting [4]) turned out to be 108%. In addition, the DC50 on IRAK4 [2] (Table 5, multiple runs) was determined as 19.1 nM.

Take `CC(C)Nc1cc(-c2ccc3cc(C#N)cnn23)ncc1-c1nnc(N2CCN(CCCCc3ccc4c(c3)CN(C3CCC(=O)NC3=O)C4=O)CC2)s1` (stereo not shown) [Example 26, 7-(5-(5-(4-(4-(2-(2,6-dioxopiperidin-3-yl)-1-oxoisoindolin-5-yl)butyl)piperazin-1-yl)-1,3,4-thiadiazol-2-yl)-4-(isopropylamino)pyridin-2-yl)pyrrolo[1,2-b]pyridazine-3-carbonitrile]: the concentration for half-maximal inhibition (IC50) turned out to be 0.9 nM on IRAK4 [1] (Table 4) and 0.9 nM at IRAK4 [1] (Table 5, multiple runs). Moreover, the Dmax at IRAK4 [2] (setting [3]) and at IRAK4 [2] (setting [4]) was 87% each time. Moreover, the DC50 on IRAK4 [2] (Table 4) was 94.2 nM; on IRAK4 [2] (Table 5, multiple runs), 94.1 nM.
